Measured values as given in US20150104868A1, “Methods of Maintaining and Improving Biological Cell Function and Activity” (GARGILL INCORPORATED, priority 2012, published 2015).

System: CRL 1730 HUVECs
Experiment: Microarray transcriptomics of HUVEC (HGERT/HG, HG/NG)
Type: cell-based, human
[1] = Atherosclerosis, ATP binding and metabolism
[2] = Atherosclerosis, Cysteine/gluathione
[3] = Atherosclerosis, Cytokine activity
[4] = Atherosclerosis, Endothelial cell related
[5] = Atherosclerosis, Heat shock protein
[6] = Atherosclerosis, NF-kappaB transcription
[7] = Atherosclerosis, Nitric oxide synthase activity
[8] = Atherosclerosis, Peptidase activity
[9] = Atherosclerosis, Plasminogen activators
[10] = Atherosclerosis, Reactive oxygen species

SMILES: OC[C@@H](O)[C@@H](O)CO [ERT, meso-1,2,3,4-tetrahydroxybutane]
- HGERT/HG ABCB10 (ATP-binding cassette, sub-family B (MDR/TAP), member 10) [1]: 0.98 Ω
- HGERT/HG ACTL6A (Actin-like 6A) [1]: 0.98 Ω
- HGERT/HG ACTR5 (ARP5 actin-related protein 5 homolog (yeast)) [1]: Ψ 1.01
- HGERT/HG ATAD1 (ATPase family, AAA domain containing 1) [1]: 0.99 Ω
- HGERT/HG ATAD3B (ATPase family, AAA domain containing 3B) [1]: Ψ 1.01
- HGERT/HG ATP2C1 (ATPase, Ca++ transporting, type 2C, member 1) [1]: 0.99 Ω
- HGERT/HG ATP5E (ATP synthase, H+ transporting, mitochondrial F1 complex, epsilon subunit) [1]: 0.98 Ω
- HGERT/HG ATP5O (ATP synthase, H+ transporting, mitochondrial Fl complex, O subunit) [1]: 1.00 Ω
- HGERT/HG ATP13A1 (ATPase type 13A1) [1]: Ψ 1.02
- HGERT/HG C3orf26 (Chromosome 3 open reading frame 26) [1]: 0.99 Ω
- HGERT/HG CARS (Cysteinyl-tRNA synthetase) [1]: 1.00 Ω
- HGERT/HG CSNK1G1 (Casein kinase 1, gamma 1) [1]: Ψ 1.02
- HGERT/HG DCAKD (Dephospho-CoA kinase domain containing) [1]: Ψ 1.03
- HGERT/HG DDX54 (DEAD (Asp-Glu-Ala-Asp) box, polypeptide 54) [1]: 0.99 Ω
- HGERT/HG FASTKD1 (FAST kinase domains 1) [1]: 0.99 Ω
- HGERT/HG FASTKD3 (FAST kinase domains 3) [1]: 0.99 Ω
- HGERT/HG HLTF (Helicase-like transcription factor) [1]: 0.99 Ω
- HGERT/HG HSPE1 (Heat shock 10kDa protein 1 (chaperonin 10)) [1]: 0.99 Ω
- HGERT/HG KIF1B (Kinesin family member 1B) [1]: Ψ 1.01
- HGERT/HG LIMK1 (LIM domain kinase 1) [1]: Ψ 1.01
- HGERT/HG LVN (V-yes-1 Yamaguchi sarcoma viral related oncogene homolog) [1]: Ψ 1.02
- HGERT/HG MAP4K3 (Mitogen-activated protein kinase kinase kinase kinase 3) [1]: 0.98 Ω
- HGERT/HG MARK2 (MAP/microtubule affinity-regulating kinase 2) [1]: Ψ 1.03
- HGERT/HG RP2 (Retinitis pigmentosa 2 (X-linked recessive)) [1]: 0.99 Ω
- HGERT/HG RPS6KA2 (Ribosomal protein S6 kinase, 90kDa, polypeptide 2) [1]: Ψ 1.01
- HGERT/HG SLK (STE20-like kinase) [1]: 0.99 Ω
- HGERT/HG STK39 (Serine threonine kinase 39) [1]: 0.98 Ω
- HGERT/HG SUCLA2 (Succinate-CoA ligase, ADP-forming, beta subunit) [1]: 0.99 Ω
- HGERT/HG TRIT1 (TRNA isopentenyltransferase 1) [1]: 0.98 Ω
- HGERT/HG VPS4B (Vacuolar protein sorting 4 homolog B (S. cerevisiae)) [1]: 0.99 Ω
- HGERT/HG YME1L1 (YME1-like 1 (S. cerevisiae)) [1]: 1.00 Ω
- HGERT/HG CORO1A (Coronin, actin binding protein, 1A) (Atherosclerosis, Actin binding): 0.94 Ω
- HGERT/HG PLEC1 (Plectin) (Atherosclerosis, Actin binding): Ψ 1.03
- HGERT/HG AHCYL1 (Adenosylhomocysteinase-like 1) [2]: Ψ 1.01
- HGERT/HG ATIC (5-aminoimidazole-4-carboxamide ribonucleotide formyltransferase/IMP cyclohydrolase) [2]: 0.99 Ω
- HGERT/HG ESD (Esterase D) [2]: 0.99 Ω
- HGERT/HG BMP6 (Bone morphogenetic protein 6) [3]: Ψ 1.01
- HGERT/HG IL13RA1 (Interleukin 13 receptor, alpha 1) [3]: Ψ 1.02
- HGERT/HG IL17D (Interleukin 17D) [3]: 0.98 Ω
- HGERT/HG ENG (Endoglin) [4]: Ψ 1.01
- HGERT/HG FOXC1 (Forkhead box C1) [4]: Ψ 1.01
- HGERT/HG GPR124 (G protein-coupled receptor 124) [4]: Ψ 1.02
- HGERT/HG HIG2 (Chromosome 7 open reading frame 68) [4]: Ψ 1.01
- HGERT/HG JUP (Junction plakoglobin) [4]: Ψ 1.01
- HGERT/HG KRIT1 (KRIT1, ankyrin repeat containing) [4]: 0.99 Ω
- HGERT/HG NOTCH1 (Notch 1) [4]: Ψ 1.02
- HGERT/HG JUP (Junction plakoglobin) (Atherosclerosis, Endothelial cell-cell adhesion): Ψ 1.01
- HGERT/HG DNAJC8 (DnaJ (Hsp40) homolog, subfamily C, member 8) [5]: 0.99 Ω
- HGERT/HG DNAJC11 (DnaJ (Hsp40) homolog, subfamily C, member 11) [5]: Ψ 1.01
- HGERT/HG COMMD7 (COMM domain containing 7) [6]: 0.99 Ω
- HGERT/HG NDFIP2 (Nedd4 family interacting protein 2) [6]: 0.99 Ω
- HGERT/HG PTPLAD1 (Protein tyrosine phosphatase-like A domain containing 1) [6]: Ψ 1.01
- HGERT/HG TP53BP2 (Tumor protein p53 binding protein, 2) [6]: Ψ 1.01
- HGERT/HG ACVR2A (Activin A receptor, type IIA) [7]: 0.99 Ω
- HGERT/HG ENG (Endoglin) [7]: Ψ 1.01
- HGERT/HG HIG2 (Chromosome 7 open reading frame 68) [7]: Ψ 1.01
- HGERT/HG OSTM1 (Osteopetrosis associated transmembrane protein 1) (Atherosclerosis, Osteoclast differentiation): 0.99 Ω
- HGERT/HG ATXN3 (Ataxin 3) [8]: 0.99 Ω
- HGERT/HG OTUD5 (OTU domain containing 5) [8]: Ψ 1.01
- HGERT/HG SENP3 (SUMO1/sentrin/SMT3 specific peptidase 3) [8]: Ψ 1.01
- HGERT/HG WFDC12 (WAP four-disulfide core domain 12) [8]: 0.96 Ω
- HGERT/HG PLSCR4 (Phospholipid scramblase 4) (Atherosclerosis, Phospholipid scramblase): 0.99 Ω
- HGERT/HG BRD2 (Bromodomain containing 2) [9]: Ψ 1.02
- HGERT/HG RHOJ (Ras homolog gene family, member J) [9]: Ψ 1.02
- HGERT/HG COX8A (Cytochrome c oxidase subunit VIIIA (ubiquitous)) [10]: 0.99 Ω
- HGERT/HG JUP (Junction plakoglobin) [10]: Ψ 1.01
- HGERT/HG MPHOSPH6 (M-phase phosphoprotein 6) [10]: 0.99 Ω
- HGERT/HG SDHD (Succinate dehydrogenase complex, subunit D, integral membrane protein) [10]: 0.98 Ω
- HGERT/HG SMOX (Spermine oxidase) [10]: 0.99 Ω
- HGERT/HG SOS1 (Son of sevenless homolog 1 (Drosophila)) [10]: Ψ 1.06
- HGERT/HG TCF12 (Transcription factor 12) [10]: 0.99 Ω
- HGERT/HG TGM2 (Transglutaminase 2 (C polypeptide, protein-glutamine-gamma-glutamyltransferase)) [10]: Ψ 1.01
- HGERT/HG PGRMC2 (Progesterone receptor membrane component 2) (Atherosclerosis, Steroid hormone receptor activity): 0.98 Ω
- HGERT/HG ABCB10 (ATP-binding cassette, sub-family B (MDR/TAP), member 10) (Breast cancer, ATP metabolism): 0.98 Ω
- HGERT/HG ACTL6A (Actin like 6A) (Breast cancer, ATP metabolism): 0.98 Ω
- HGERT/HG ACTR5 (ARP5 actin-related protein 5 homolog (yeast)) (Breast cancer, ATP metabolism): Ψ 1.01
- HGERT/HG ATAD1 (ATPase family, AAA domain containing 1) (Breast cancer, ATP metabolism): 0.99 Ω
- HGERT/HG ATAD38 (ATPase family, AAA domain containing 38) (Breast cancer, ATP metabolism): Ψ 1.01
- HGERT/HG ATP2C1 (ATPase, Ca++ transporting, type 2C, member 1) (Breast cancer, ATP metabolism): 0.99 Ω
- HGERT/HG ATP5E (ATP synthase, H+ transporting, mitochondrial F1 complex, epsilon subunit) (Breast cancer, ATP metabolism): 0.99 Ω
- HGERT/HG ATP5O (ATP synthase, H+ transporting, mitochondrial F1 complex, O subunite) (Breast cancer, ATP metabolism): Ψ 1.00
- HGERT/HG ATP13A1 (ATPase type 13A1) (Breast cancer, ATP metabolism): Ψ 1.02
- HGERT/HG C3orf26 (Chromosome 3 open reading frame 26) (Breast cancer, ATP metabolism): 0.99 Ω
- HGERT/HG CARS (Cysteinyl-tRNA synthetase) (Breast cancer, ATP metabolism): 1.00 Ω
- HGERT/HG CSNK1G1 (Casein kinase 1, gamma 1) (Breast cancer, ATP metabolism): Ψ 1.02
- HGERT/HG DCAKO (Dephospho-CoA kinase domain containing) (Breast cancer, ATP metabolism): Ψ 1.03
- HGERT/HG DDX54 (DEAD (Asp-Glu-Ala-Asp) box, polypeptide 54) (Breast cancer, ATP metabolism): 0.99 Ω
- HGERT/HG FASTDK1 (FAST kinase domains 1) (Breast cancer, ATP metabolism): 0.99 Ω
- HGERT/HG FASTKD3 (FAST kinase domains 1) (Breast cancer, ATP metabolism): 0.99 Ω
- HGERT/HG HLTF (Helicase-like transcription factor) (Breast cancer, ATP metabolism): 0.99 Ω
- HGERT/HG HSPE1 (Heat shock 10kDa protein 1 (chaperonin 10)) (Breast cancer, ATP metabolism): 0.99 Ω
- HGERT/HG KF1B (Kinesin family member 1B) (Breast cancer, ATP metabolism): Ψ 1.01
- HGERT/HG LIMK1 (LIM domain kinase 1) (Breast cancer, ATP metabolism): Ψ 1.01
- HGERT/HG LYN (V-yes-1 Yamaguchi sarcoma viral related oncogene homolog) (Breast cancer, ATP metabolism): Ψ 1.02
- HGERT/HG MAP4K3 (Mitogen-activated protein kinase kinase kinase kinase 3) (Breast cancer, ATP metabolism): 0.98 Ω
- HGERT/HG RP2 (Retinitis pigmentosa 2 (X-linked recessive)) (Breast cancer, ATP metabolism): 0.98 Ω
- HGERT/HG SLK (STE20-like kinase) (Breast cancer, ATP metabolism): 0.99 Ω
- HGERT/HG STK39 (Serine threonine kinase 39) (Breast cancer, ATP metabolism): 0.98 Ω
- HGERT/HG SUCLA2 (Succinate-CoA ligase, ADP-forming, beta subunit) (Breast cancer, ATP metabolism): 0.99 Ω
